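All cell lines were grown in 96-well plates and treated with compound for 48 hours. GI50 marks 50% less growth. The concentration for full growth arrest is given as TGI.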
Legend:
Experiment in all cases: inhibition of tumour cell growth, NCI panel, 48 h
[1] = system: NCI-H522 lung
[2] = system: OVCAR-3 ovarian
[3] = system: NCI-H226 lung
[4] = system: SF-268 CNS
[5] = system: K-562 leukemia
[6] = system: CCRF-CEM leukemia
[7] = system: KM12 colon
[8] = system: U251 CNS
[9] = system: SK-MEL-28 melanoma
[10] = system: NCI-H460 lung
[11] = system: MDA-MB-435
[12] = system: HCT-15 colon
[13] = system: BT-549 breast
[14] = system: UO-31 renal
[15] = system: CAKI-1 renal
[16] = system: 786-0 renal
[17] = system: DU-145 prostate
[18] = system: SK-MEL-5 melanoma
[19] = system: TK-10 renal
[20] = system: SW-620 colon
[21] = system: OVCAR-5 ovarian
[22] = system: HT29 colon
[23] = system: SK-MEL-2 melanoma
[24] = system: IGROV1 ovarian
[25] = system: SR leukemia
[26] = system: OVCAR-4 ovarian
[27] = system: SNB-19 CNS
[28] = system: A549 NSCLC
[29] = system: SF-295 CNS
[30] = system: SNB-75 CNS
[31] = system: T-47D breast
[32] = system: PC-3 prostate
[33] = system: OVCAR-8 ovarian
[34] = system: RPMI-8226 leukemia
[35] = system: MOLT-4 leukemia
[36] = system: HS 578T breast
[37] = system: SN12C renal
[38] = system: HOP-62 NSCLC
[39] = system: MDA-MB-231 breast
[40] = system: NCI/ADR-RES ovarian
[41] = system: EKVX NSCLC
[42] = system: M14 melanoma
[43] = system: HL-60(TB) leukemia
[44] = system: A498 renal
[45] = system: HOP-92 NSCLC
[46] = system: NCI-H23 lung
[47] = system: RXF 393 renal
[48] = system: SF-539 CNS
[49] = system: COLO 205 colon
[50] = system: HCT-116 colon
[51] = system: UACC-62 melanoma
[52] = system: ACHN renal
[53] = system: UACC-257 melanoma
[54] = system: MCF7 breast
[55] = system: HCC-2998 colon
[56] = system: SK-OV-3 ovarian
[57] = system: MALME-3M melanoma

## O=C(NCCCCNCCCNC(=O)C(F)(F)F)C(F)(F)F
[1]
  TGI: > 100 µM
[2]
  TGI: > 100 µM
[3]
  TGI: > 100 µM
[4]
  TGI: > 100 µM
[5]
  TGI: > 100 µM
[6]
  TGI: > 100 µM
[7]
  TGI: > 100 µM
[8]
  TGI: > 100 µM
[9]
  TGI: > 100 µM
[10]
  TGI: > 100 µM
[11]
  TGI: > 100 µM
[12]
  TGI: > 100 µM
[13]
  TGI: > 100 µM
[14]
  TGI: > 100 µM
[15]
  TGI: > 100 µM
[16]
  TGI: > 100 µM
[17]
  TGI: > 100 µM
[18]
  TGI: > 100 µM
[19]
  TGI: > 100 µM
[20]
  TGI: > 100 µM
[21]
  TGI: > 100 µM
[22]
  TGI: > 100 µM
[23]
  TGI: > 100 µM
[24]
  TGI: > 100 µM
[25]
  TGI: > 100 µM
[26]
  TGI: > 100 µM
[27]
  TGI: > 100 µM
[28]
  TGI: > 100 µM
[29]
  TGI: > 100 µM
[30]
  TGI: > 100 µM
[31]
  TGI: > 100 µM
[32]
  TGI: > 100 µM
[33]
  TGI: > 100 µM
[34]
  TGI: > 100 µM
[35]
  TGI: > 100 µM
[36]
  TGI: > 100 µM
[37]
  TGI: > 100 µM
[38]
  TGI: > 100 µM
[39]
  TGI: > 100 µM
[40]
  TGI: > 100 µM
[41]
  TGI: > 100 µM
[42]
  TGI: > 100 µM
[43]
  TGI: > 100 µM
[44]
  TGI: > 100 µM
[45]
  TGI: > 100 µM
[46]
  TGI: > 100 µM
[47]
  TGI: > 100 µM
[48]
  TGI: > 100 µM
[49]
  TGI: > 100 µM
[50]
  TGI: > 100 µM
[51]
  TGI: > 100 µM
[52]
  TGI: > 100 µM
[53]
  TGI: > 100 µM
[54]
  TGI: > 100 µM
[55]
  TGI: > 100 µM
[56]
  TGI: 65.5 µM

## COc1cc(-c2cc(-c3nc4ccccc4[nH]3)[nH]n2)cc(OC)c1OC
[1]
  GI50: 1.87 µM
  TGI: 8.81 µM
[2]
  GI50: 4 µM
  TGI: 16.4 µM
[3]
  GI50: 1.14 µM
  TGI: 7.26 µM
[4]
  GI50: 6.43 µM
  TGI: 21.9 µM
[5]
  GI50: 3.08 µM
  TGI: > 100 µM
[6]
  GI50: 2.12 µM
  TGI: 9.96 µM
[7]
  GI50: 3.15 µM
  TGI: 11.6 µM
[8]
  GI50: 3.73 µM
  TGI: 32.6 µM
[9]
  GI50: 2.72 µM
  TGI: 9.71 µM
[10]
  GI50: 3.64 µM
  TGI: 21.5 µM
[11]
  GI50: 2.35 µM
  TGI: 7.61 µM
[12]
  GI50: 3.43 µM
  TGI: 24.4 µM
[13]
  GI50: 1.8 µM
  TGI: 8.11 µM
[14]
  GI50: 2.21 µM
  TGI: 12.2 µM
[15]
  GI50: 2.24 µM
  TGI: 14.4 µM
[16]
  GI50: 3.66 µM
  TGI: 15.5 µM
[17]
  GI50: 3.9 µM
  TGI: 16.7 µM
[18]
  GI50: 1.34 µM
  TGI: 3.94 µM
[19]
  GI50: 4.07 µM
  TGI: 22.8 µM
[20]
  GI50: 7.73 µM
  TGI: 30.3 µM
[21]
  GI50: 13 µM
  TGI: 32.7 µM
[22]
  GI50: 7.16 µM
  TGI: 51.2 µM
[24]
  GI50: 2.34 µM
  TGI: 15.4 µM
[25]
  GI50: 3.32 µM
  TGI: > 100 µM
[26]
  GI50: 1.26 µM
  TGI: 7.03 µM
[27]
  GI50: 17.8 µM
  TGI: > 100 µM
[28]
  GI50: 2.43 µM
  TGI: 15.1 µM
[29]
  GI50: 3.13 µM
  TGI: 14.7 µM
[30]
  GI50: 2.83 µM
  TGI: 12.8 µM
[31]
  GI50: 1.11 µM
  TGI: 7.61 µM
[32]
  GI50: 2.1 µM
  TGI: 8.54 µM
[33]
  GI50: 2.35 µM
  TGI: 7.74 µM
[34]
  GI50: 1.2 µM
  TGI: 4.16 µM
[35]
  GI50: 2.13 µM
  TGI: 5.17 µM
[36]
  GI50: 6.89 µM
  TGI: > 100 µM
[37]
  GI50: 3.91 µM
  TGI: 20.4 µM
[38]
  GI50: 3.54 µM
  TGI: 16.7 µM
[39]
  GI50: 3.22 µM
  TGI: 15.8 µM
[40]
  GI50: 2.88 µM
  TGI: 8.49 µM
[42]
  GI50: 2.57 µM
  TGI: 11.6 µM
[43]
  GI50: 2.54 µM
  TGI: 10.5 µM
[44]
  GI50: 1.51 µM
  TGI: 27.1 µM
[46]
  GI50: 2.26 µM
  TGI: 14.4 µM
[47]
  GI50: 1.77 µM
  TGI: 11.4 µM
[48]
  GI50: 5.11 µM
  TGI: 18.9 µM
[49]
  GI50: 3.98 µM
  TGI: 15.6 µM
[50]
  GI50: 3.16 µM
  TGI: 16.8 µM
[51]
  GI50: 1.64 µM
  TGI: 4.66 µM
[52]
  GI50: 2.77 µM
  TGI: 14.2 µM
[53]
  GI50: 2.1 µM
  TGI: 6.12 µM
[54]
  GI50: 2.79 µM
  TGI: 10.3 µM
[55]
  GI50: 7.1 µM
  TGI: 21.5 µM
[56]
  GI50: 3.48 µM
  TGI: 9.74 µM
[57]
  GI50: 1.95 µM
  TGI: 8.49 µM
